For one assay, the target named is T1, CDK2/CycE (Homo sapiens, UniProt P24941).
T1 construct: purchased ProQinase GmbH (Freiburg, Germany); host or cells: insect cells (Sf9)
Description: CDK2/CycE kinase assay (TR-FRET, 2 mM ATP). In kind it is biochemical. As to conditions: 2 mM ATP (high ATP); median; read-out: CDK2/CyclinE, 2 mM ATP (high ATP), IC50 (median). An outline of the steps:
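Biotin-peptide phosphorylation (0.75 µM substrate, 2 mM ATP final, 25 min, 22 °C) by Sf9-expressed GST-CDK2/GST-CycE, after a 15-min compound pre-binding step. Inhibition scaled between enzyme-free (100%) and uninhibited (0%) wells.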

In assay [1] the test system is BRCA1 mRNA expression in MDA-MB-231 cells. Description: qRT-PCR assay: BRCA1 mRNA expression in MDA-MB-231. In kind it is cell-based, human. As to conditions: Homo sapiens, MDA-MB-231, Inhibition of BRCA1 mRNA expression in MDA-MB-231 cells; median; read-out: RTqPCR-MDA-MB-231, IC50, BRCA1 (median). An outline of the steps:
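First, cells are plated at 200,000 per well and allowed 24 h. Second, test substances are applied continuously for a further 24 h. Finally, RNA is isolated, 600 ng is converted to cDNA, and qPCR quantifies the transcript relative to GAPDH.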

Assay [2] has as its system MDA-MB-231, human breast cancer cells. Description: Proliferation assay MDA-MB-231 (crystal violet, 4 days). In kind it is cell-based. The settings on record: Homo sapiens, MDA-MB-231, 96 h, MDA-MB-231 cells, median, read-out: Prolif-MDA MB-231, IC50-[mol/l] (median). An outline of the steps:
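Growth was measured by crystal violet staining after cells had been treated with compounds (0.01-10 µmol/L, 0.1% DMSO) for 4 days, beginning 24 h after seeding. Values were normalized to a zero-point plate and to untreated controls, and IC50 values were derived by a four-parameter fit.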

In patent US20230117034A1, “PYRAZOLOTRIAZINES” (Bayer Aktiengesellschaft, priority 2019, published 2023) one finds IC50 data, which are given here for 16 compounds.

Where only a bound is given, the exact number is not on record here.

Regarding `OC1CCN(c2nc(NCc3nc4ccccc4[nH]3)n3ncc(Br)c3n2)CC1` [Example 17, 1-(4-{[(1H-benzimidazol-2-yl)methyl]amino}-8-bromopyrazolo[1,5-a][1,3,5]triazin-2-yl)piperidin-4-ol], the values for the IC50 (at CDK2/CycE; in assay [1]; in assay [2]) were 2890 nM, 12 nM and 107 nM, respectively.
On to `CO[C@@H]1CCN(c2nc(NCc3nc4ccccc4[nH]3)n3ncc(Br)c3n2)C1` [Example 223, N-[(1H-benzimidazol-2-yl)methyl]-8-bromo-2-[(3R)-3-methoxypyrrolidin-1-yl]pyrazolo[1,5-a][1,3,5]triazin-4-amine], for which the IC50 on CDK2/CycE was 14400 nM; in assay [1], 86.5 nM; in assay [2], 349 nM.
In the case of `OC1(C(F)(F)F)CCN(c2nc(NCc3nc4ccccc4[nH]3)n3ncc(Br)c3n2)C1` (stereo not drawn) [Example 200, 1-[4-(1H-benzimidazol-2-ylmethylamino)-8-bromo-pyrazolo[1,5-a][1,3,5]triazin-2-yl]-3-(trifluoromethyl)pyrrolidin-3-ol], the IC50 on CDK2/CycE was found to be 4630 nM; in assay [1], 66.2 nM; in assay [2], 152 nM.
Regarding `C[C@@H]1CN(c2nc(NCc3nc4c(F)cccc4[nH]3)n3ncc(C4CC4)c3n2)C[C@H](C)N1` [Example 186, 8-cyclopropyl-2-[(3R,5S)-3,5-dimethylpiperazin-1-yl]-N-[(4-fluoro-1H-benzimidazol-2-yl)methyl]pyrazolo[1,5-a][1,3,5]triazin-4-amine], the IC50 was above 20000 nM on CDK2/CycE, 1.49 nM in assay [1] and 4.94 nM in assay [2].
The matching figures for `OC[C@@H]1CCCCN1c1nc(NCc2nc3c(F)cccc3[nH]2)n2ncc(C3CC3)c2n1` [Example 189, [(2S)-1-(8-cyclopropyl-4-{[(4-fluoro-1H-benzimidazol-2-yl)methyl]amino}pyrazolo[1,5-a][1,3,5]triazin-2-yl)piperidin-2-yl]methanol]: 761 nM, 1.98 nM and 10.7 nM.
Consider `OC[C@@H]1CCCCN1c1nc(NCc2nc3c(F)c(F)ccc3[nH]2)n2ncc(C3CC3)c2n1` [Example 184, [(2S)-1-(8-cyclopropyl-4-{[(4,5-difluoro-1H-benzimidazol-2-yl)methyl]amino}pyrazolo[1,5-a][1,3,5]triazin-2-yl)piperidin-2-yl]methanol], for which the IC50 on CDK2/CycE stood at 2720 nM; in assay [1], 3.89 nM; in assay [2] it was 10.3 nM.
Take `Fc1ccc2[nH]c(CNc3nc(N4CCNCC4)nc4c(C5CC5)cnn34)nc2c1F` [Example 174, 8-cyclopropyl-N-[(4,5-difluoro-1H-benzimidazol-2-yl)methyl]-2-(piperazin-1-yl)pyrazolo[1,5-a][1,3,5]triazin-4-amine]: the results for the IC50 (on CDK2/CycE; in assay [1]; in assay [2]) were above 20000 nM, 0.872 nM and 2.19 nM, respectively.
The matching figures for `OC1CCCN(c2nc(NCc3nc4ccccc4[nH]3)n3ncc(Br)c3n2)C1` (racemic) [Example 16, (rac)-1-(4-{[(1H-benzimidazol-2-yl)methyl]amino}-8-bromopyrazolo[1,5-a][1,3,5]triazin-2-yl)piperidin-3-ol]: 1500 nM, 5.41 nM and 81.1 nM.
Turning to `CC1(O)CCN(c2nc(NCc3nc4ccccc4[nH]3)n3ncc(Br)c3n2)C1` (stereo not drawn) [Example 225, 1-[4-(1H-benzimidazol-2-ylmethylamino)-8-bromo-pyrazolo[1,5-a][1,3,5]triazin-2-yl]-3-methyl-pyrrolidin-3-ol], the IC50 on CDK2/CycE was found to be 5390 nM; in assay [1] it was 34.8 nM; in assay [2], 123 nM.
Consider `COc1cccc2[nH]c(CNc3nc(N4C[C@H]5C[C@@H]4CO5)nc4c(C5CC5)cnn34)nc12` [Example 198, 8-cyclopropyl-N-[(4-methoxy-1H-benzimidazol-2-yl)methyl]-2-[(1R,4R)-2-oxa-5-azabicyclo[2.2.1]heptan-5-yl]pyrazolo[1,5-a][1,3,5]triazin-4-amine], for which the IC50 was 9940 nM at CDK2/CycE, 60.3 nM in assay [1] and 98 nM in assay [2].
The matching figures for `CC(C)(O)CNc1nc(NCc2nc3ccccc3[nH]2)n2ncc(Br)c2n1` [Example 229, 1-[(4-{[(1H-benzimidazol-2-yl)methyl]amino}-8-bromopyrazolo[1,5-a][1,3,5]triazin-2-yl)amino]-2-methylpropan-2-ol]: 1460 nM, 10.8 nM and 42.8 nM.
The matching figures for `Fc1ccc2[nH]c(CNc3nc(N4C[C@@H]5C[C@H]4CO5)nc4c(C5CC5)cnn34)nc2c1` [Example 185, 8-cyclopropyl-N-[(5-fluoro-1H-benzimidazol-2-yl)methyl]-2-[(1S,4S)-2-oxa-5-azabicyclo[2.2.1]heptan-5-yl]pyrazolo[1,5-a][1,3,5]triazin-4-amine]: above 20000 nM, 26.6 nM and 58.8 nM.
The matching figures for `Cc1ccc2[nH]c(CNc3nc(N4C[C@H]5C[C@@H]4CO5)nc4c(Br)cnn34)nc2c1` [Example 192, 8-bromo-N-[(5-methyl-1H-benzimidazol-2-yl)methyl]-2-[(1R,4R)-2-oxa-5-azabicyclo[2.2.1]heptan-5-yl]pyrazolo[1,5-a][1,3,5]triazin-4-amine]: 4170 nM, 2.05 nM and 4.91 nM.
Regarding `Fc1cccc2[nH]c(CNc3nc(N4C[C@@H]5CCCN[C@@H]5C4)nc4c(C5CC5)cnn34)nc12` [Example 187, 8-cyclopropyl-N-[(4-fluoro-1H-benzimidazol-2-yl)methyl]-2-[(4aS,7aS)-octahydro-6H-pyrrolo[3,4-b]pyridin-6-yl]pyrazolo[1,5-a][1,3,5]triazin-4-amine], the IC50 is above 20000 nM at CDK2/CycE, 9.17 nM in assay [1] and 13.8 nM in assay [2].
The matching figures for `CCNc1nc(NCc2nc3ccccc3[nH]2)n2ncc(Br)c2n1` [Example 227, N4-(1H-benzimidazol-2-ylmethyl)-8-bromo-N2-ethyl-pyrazolo[1,5-a][1,3,5]triazine-2,4-diamine]: 1870 nM, 15.3 nM and 57.9 nM.
With `CN1C[C@@H]2C[C@H]1CN2c1nc(NCc2nc3ccccc3[nH]2)n2ncc(Br)c2n1` [Example 219, N-[(1H-benzimidazol-2-yl)methyl]-8-bromo-2-[(1S,4S)-5-methyl-2,5-diazabicyclo[2.2.1]heptan-2-yl]pyrazolo[1,5-a][1,3,5]triazin-4-amine], the IC50 at CDK2/CycE is above 20000 nM; in assay [1], 11.6 nM; in assay [2] it was 50.3 nM.
